# Reference: patent US20170128518A1, “METHODS AND MATERIALS FOR IDENTIFYING AND TREATING MAMMALS RESISTANT TO PROTEASOME INHIBITOR TREATMENTS” (Mayo Foundation for Medical Education and Research, priority 2014, published 2017)
# “Also recorded” adds a separate entry of the source. Peptide text beside a SMILES is read from it. * marks the point of attachment. Cbz = O=C(OCc1ccccc1)*; CH2F = FC*
# Key:
# [1] = system: bortezomib or carfilzomib-resistant MM and WM cell lines; experiment: VLX1570-sensitivity screen (Celltiter Glo viability assay); type: cell-based, human; conditions: bortezomib/carfilzomib-resistant tumor cells
# Source text: FIG. 5 is a graph plotting sensitivity of bortezomib or carfilzomib-resistant tumor cells to drugs with a mechanism directed at targets upstream of the 20S proteasome. An inhibitor of the deubiquitinase (DUB) enzymes located in the 19S cap of the proteasome that are upstream of β5 and β1i, was used.
# OPM2 cell line (WT) = experiment: MTS assay, OPM2 WT; type: cell-based; conditions: Homo sapiens, OPM-2
# Source text: (§1) FIGS. 1A-1C show the characterization of bortezomib-resistance (BR) models, established by subjecting plasma cell cancer cell lines (n=6) chronic drug exposure. FIG. 1A is a graph plotting the results of an MTS assay for an OPM2 cell line (representative model).
# (§2) To investigate the mechanism of induction of bortezomib resistance, preclinical models of acquired bortezomib resistance (BR) were developed using human MM and WM cell lines.
# OPM2 BR derivative = experiment: MTS assay, OPM2 BR derivative; type: cell-based; conditions: Homo sapiens, OPM-2
# Source text: as §1, §2
# BCWM.1 cell line = experiment: MTS viability assay, BCWM.1; type: cell-based, human
# Experimental: (§3) FIGS. 4A-4D show the characterization of BR WM models, established by subjecting WM cancer cell lines (n=3) chronic drug exposure. […] FIG. 4C is a graph plotting relative fluorescence units in an assay to examine PSMB5 enzyme function by flow cytometry.
# (§4) Twenty thousand cells/200 μl in quadruplicates were incubated with serially diluted b-AP15 (1-1000 nmol/l) in 96-well plates at 37° C. for 72 hours. MTS (3-(4,5-dimethylthiazol-2-yl)-5-(3-carboxymethoxyphenyl)-2-(4-sulfophenyl)-2H-tetrazolium) reagent (Molecular Probes, Eugene, Oreg.) was added at 40 μl/well and the plates were further incubated at 37° C. for 3 hours and the developed color was read at 490 nm using a BioTek synergy HT plate reader against blanks with no cells.
# BCWM.1/BR = experiment: MTS viability assay, BCWM.1/BR; type: cell-based, human
# Experimental: as §3, §4
# MWCL-1 cells = experiment: MTS viability assay, MWCL-1; type: cell-based, human; conditions: Homo sapiens, MTS assay
# Experimental: as §4
# MWCL-1/BR = experiment: MTS viability assay, MWCL-1/BR; type: cell-based, human; conditions: Homo sapiens; MTS assay, MWCL-1/BR
# Experimental: as §4
# RPCI-WM1 = experiment: MTS viability assay, RPCI-WM1; type: cell-based, human; conditions: Homo sapiens, MTS assay
# Experimental: as §4
# RPCI-WM1/BR = experiment: MTS viability assay, RPCI-WM1/BR; type: cell-based, human; conditions: Homo sapiens, MTS assay
# Experimental: as §4
# [2] = system: BR human MM and WM cell lines; experiment: Growth insensitivity of BR cell lines vs WT counterparts; type: cell-based; conditions: BR cell lines compared to respective WT counterparts
# Source text: as §2
# [3] = molecular target: T1, 20S proteasome b5 subunit (Homo sapiens, UniProt P28074); experiment: Proteasomal activity assay, chymotrypsin-like (LLVY-AMC), WM cells; type: biochemical; conditions: 10 nmol/l; WT and BR WM cells
# T1 construct: Cells were lysed at 4×10^6 cells/ml in proteasomal activity assay buffer; endogenous in cells; host or cells: BCWM.1, MWCL-1, RPCI-WM1 and their BR subclones (lysates)
# T1 sequence (P28074 60-263): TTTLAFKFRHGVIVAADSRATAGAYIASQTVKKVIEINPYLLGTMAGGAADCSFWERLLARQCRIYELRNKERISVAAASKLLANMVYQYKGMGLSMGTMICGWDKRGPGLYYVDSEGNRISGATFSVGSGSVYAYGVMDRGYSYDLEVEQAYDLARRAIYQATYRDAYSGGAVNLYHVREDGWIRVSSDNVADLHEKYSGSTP
# Experimental: FIGS. 10A and 10B are a series of graphs plotting the effect of b-AP15 treatment on 20S proteasome, b5-subunit (chymotrypsin-like) catalytic activity in WT and BR WM cells.
# Cells were lysed at 4×10^6 cells/ml in proteasomal activity assay buffer [assay buffer; 25 mmol/1 HEPES buffer, pH7.5 containing 0.5 mmol/1 EDTA, 0.05% Nonidet P-40, 0.01% sodium dodecyl sulfate (SDS)] and immediately used in the assay. Enzyme reactions were performed in 96-well plates with 100 μl of final volume containing […] fluorogenic peptide substrates. The substrates used were LLVY-AMC for chymotrypsin like activity, LLE-AMC for caspase-like activity and LRR-AMC for trypsin-like activity. Reactions were incubated at 37° C. for 1 hour and fluorescence was measured at 360/460 using a BioTek synergy HT plate reader (BioTek, Winooski, Vt.).
# β5/PSMB5 = β5/PSMB5 (Homo sapiens, UniProt P28074); experiment: 26S proteasome activity, Suc-LLVY-AMC cleavage, WT and BR plasma cell cancer cells; type: biochemical; conditions: in the presence of bortezomib
# Experimental: FIGS. 3A-3C are a series of graphs showing that bortezomib resistance is associated with increased proteasomal enzymatic activity.
# Studies were performed to investigate whether an increase in β1i and β5 proteins corresponded with increased protease activity. WT and BR cancer cells were incubated with β1i specific (Ac-PAL-AMC substrate) and β5 specific (Suc-LLVY-AMC substrate) fluorogenic peptides (condition details in FIG. 3 description above). β5 chymotryptic activity (primary target of bortezomib) was assessed first and found in BR cells.
# [4] = system: treatment naïve MM patients; conditions: bortezomib-based therapies; cited from earlier work
# MCL patients = conditions: bortezomib-based therapies; cited from earlier work
# WT and BR WM cells = experiment: Mitochondrial outer membrane permeability (TMRM), WM cell lines; type: cell-based, human; conditions: pre-treatment with pan-caspase inhibitor
# Experimental: Cells were treated with different agents for 48 hours and assessed for MOMP using tetramethylrhodamine methyl ester [TMRM] (Life Technologies). TMRM was directly added to the cell cultures at 100 nmol/1 concentrations and incubated at 37° C. in the dark for 15 minutes. At the end of the incubation, cells were washed twice with cold PBS containing 2% FBS and analyzed. The cells were washed for fluorescence (FL2) and analyzed by BD Accuri, the C6 flow cytometer and its software. Data from at least 20,000 events per sample were collected and analyzed. TMRM-negative (%) cells were calculated to determine % MOMP.
smiles,measurement,setting,value
C=CC(=O)N1CC/C(=C\c2ccc(F)c([N+](=O)[O-])c2)C(=O)/C(=C/c2ccc(F)c([N+](=O)[O-])c2)C1 [VLX1570],cytotoxicity,[1],comparable cytotoxicity
CC(C)C[C@H](NC(=O)[C@H](Cc1ccccc1)NC(=O)c1cnccn1)B(O)O [bortezomib],IC50,OPM2 cell line (WT),6.14 nM
same,IC50,OPM2 BR derivative,> 50 nM
same,IC50,"BCWM.1 cell line; Homo sapiens, BCWM1, MTS assay",18 nM
same,IC50,BCWM.1 cell line; MTS assay,11.4 nM
same,IC50,"BCWM.1/BR; Homo sapiens, BCWM1, MTS assay",> 1000 nM
same,IC50,BCWM.1/BR; MTS assay,720 nM
same,IC50,MWCL-1 cells,16.6 nM
same,IC50,MWCL-1/BR,65.2 nM
same,IC50,RPCI-WM1,27 nM
same,IC50,RPCI-WM1/BR,125 nM
same,"increase in growth insensitivity, BR vs WT",[2],> 100 fold
same,chymotrypsin-like activity (LLVY) of the b5 subunit,[3],significantly diminished
same,chymotryptic β5 activity,β5/PSMB5,decreased; also recorded: inhibited the chymotryptic activity; also recorded: nearly abrogated
same,response rate,[4],about 100%
same,response rate,MCL patients,about 75%
CC(C)C[C@H](NC(=O)[C@H](CCc1ccccc1)NC(=O)CN1CCOCC1)C(=O)N[C@@H](Cc1ccccc1)C(=O)N[C@@H](CC(C)C)C(=O)[C@@]1(C)CO1 [carfilzomib],chymotrypsin-like activity (LLVY) of the b5 subunit,[3],significantly diminished
COC(=O)C[C@H](NC(=O)[C@H](C)NC(=O)[C@@H](NC(=O)OCc1ccccc1)C(C)C)C(=O)CF [z.VAD.fmk] (Cbz-Val-Ala-Asp(OMe)-CH2F),MOMP in b-AP15 co-treated WM cells,WT and BR WM cells,significantly reduced MOMP
